# Measured values published in patent publication US7241905B2, “Dioxin analogues and methods and kits for searching out dioxins-decomposing organisms or enzymes or dioxin-decomposing enzyme genes” (Forestry and Forest Products Research Institute, priority 2001, dated 2007).
# Assays:
# Format in all cases: cell-based
# [1] = system: Pleurotus pulumonairus; assay: Screening of wood-rotting fungi for degradation of the naphthalene-type dioxin analogue (visual fluorescence); conditions: P. pulumonairus culture; substrate 1 ppm; samples 1, 3 and 5 days after addition; UV 365 nm; compared with the other five fungi
# Method: (§1) Different species of wood-rotting fungi (i.e., Grammothele fuligo WD844, Phanerochaete crassa WD1694, Phanerochaete chrysosporium ME446, Fomitopsis palustris, Coriolus versicolor, and Pleurotus pulumonairus) were used as test subjects and were screened for the ability to degrade the dioxin analogue obtained in Example 2 (naphthalene-type analogue).
# (§2) Each subject fungal species, which had been pre-cultured on potato agar and stamped out of the agar using a cork borer, was inoculated onto 10 ml modified NS medium (3% glucose, 1% peptone, inorganic salts, pH5.0) in a 100 ml Erlenmeyer flask and was cultured for 5 to 7 days at 28° C. Subsequently, a 100 μl DMSO solution containing the substrate naphthalene-type dioxin analogue obtained in Example 2 at a final concentration of 1 ppm was added to the culture. The solution was added so that the concentration of DMSO in the medium was 1%. Samples of the culture solution were collected at predetermined time intervals (i.e., 1, 3, and 5 days after the addition of the substrate). To a 100 μportion of each sample, 1.9 ml of an alkaline buffer (100 mM glycine, 100 mM sodium hydroxide, pH10.0) was added. The sample mixtures were then exposed to long-range UV light (365 nm) as excitation light and were visually screened for those emitting fluorescence.
# [2] = system: Fomitopsis palustris; assay: Degradation of dioxin in fungal culture, measured with a dioxin immunoassay kit; conditions: F. palustris culture (negative control fungus), 0.5 ppm, cultured 20 days, attributed to non-specific binding to fungal cells
# Method: (§3) Pleurotus pulumonairus, which has proven to cause the most intense fluorescence in Examples 3 and 4, was examined for its ability to degrade dioxin.
# (§4) As in Examples 3 and 4, Pleurotus pulumonairus was cultured in a culture medium containing glucose and peptone and, on day 7, 2,3,7,8-tetrachlorodioxin was added to the medium at a final concentration of 0.5 ppm. The fungus was subsequently cultured for 20 days. After the culturing period, the culture medium containing the fungus was freeze-dried and was subjected to extraction by refluxing with hexane. Hexane was then removed by distillation and the remaining culture was diluted 200-fold with 200 ml methanol containing 100 ppm Triton X-100. Using a High Performance Dioxin Immunoassay Kit (Cape Technologies, United States) according to the manufacturer's instruction, the concentration of dioxin was measured to determine the degradation rate of dioxin. A control shown in Table 2 is the above-described culture medium with only 2,3,7,8-tetrachlorodioxin added. Fomitopsis palustris was used as a negative control.
# [3] = system: Pleurotus pulumonairus; assay: as above; conditions: P. pulumonairus culture; 0.5 ppm; cultured 20 days; control medium without fungus 0%
# Method: as §3, §4
# [4] = system: Coriolus versicolor; assay: Screening of wood-rotting fungi for degradation of the esculetin-type dioxin analogue (fluorescence of metabolites); conditions: C. versicolor culture; substrate 1 ppm; day 7; excitation 350 nm, emission 450 nm; control medium without fungus 1370
# Method: as §1, with “1 (esculetin-type” for “2 (naphthalene-type”
# as §2, with “salts, pH 5.0)” for “salts, pH5.0)”, “substrate (esculetin-type” for “substrate naphthalene-type”, “Example 1)” for “Example 2”, “100 μl portion” for “100 μportion”, “hydroxide, pH 10.0)” for “hydroxide, pH10.0)”, “fluorescence. On day 7, the samples were irradiated with excitation light of 350 nm and, using a fluorescence spectrophotometer, the intensity of fluorescence was measured at 450 nm. A control shown in Table 1 is the above-described culture medium with only dioxin analogue (esculetin-type) added.” for “fluorescence.”
# [5] = system: Phanerochaete crassa WD1694; assay: as above; conditions: P. crassa WD1694 culture; substrate 1 ppm; day 7; excitation 350 nm, emission 450 nm; control medium without fungus 1370
# Method: as §1, with “1 (esculetin-type” for “2 (naphthalene-type”
# as §2, with “salts, pH 5.0)” for “salts, pH5.0)”, “substrate (esculetin-type” for “substrate naphthalene-type”, “Example 1)” for “Example 2”, “100 μl portion” for “100 μportion”, “hydroxide, pH 10.0)” for “hydroxide, pH10.0)”, “fluorescence. On day 7, the samples were irradiated with excitation light of 350 nm and, using a fluorescence spectrophotometer, the intensity of fluorescence was measured at 450 nm. A control shown in Table 1 is the above-described culture medium with only dioxin analogue (esculetin-type) added.” for “fluorescence.”
# [6] = system: Grammothele fuligo WD844; assay: as above; conditions: G. fuligo WD844 culture; substrate 1 ppm; day 7; excitation 350 nm, emission 450 nm; control medium without fungus 1370
# Method: as §1, with “1 (esculetin-type” for “2 (naphthalene-type”
# as §2, with “salts, pH 5.0)” for “salts, pH5.0)”, “substrate (esculetin-type” for “substrate naphthalene-type”, “Example 1)” for “Example 2”, “100 μl portion” for “100 μportion”, “hydroxide, pH 10.0)” for “hydroxide, pH10.0)”, “fluorescence. On day 7, the samples were irradiated with excitation light of 350 nm and, using a fluorescence spectrophotometer, the intensity of fluorescence was measured at 450 nm. A control shown in Table 1 is the above-described culture medium with only dioxin analogue (esculetin-type) added.” for “fluorescence.”
# [7] = system: Fomitopsis palustris; assay: as above; conditions: F. palustris culture; substrate 1 ppm; day 7; excitation 350 nm, emission 450 nm; control medium without fungus 1370
# Method: as §1, with “1 (esculetin-type” for “2 (naphthalene-type”
# as §2, with “salts, pH 5.0)” for “salts, pH5.0)”, “substrate (esculetin-type” for “substrate naphthalene-type”, “Example 1)” for “Example 2”, “100 μl portion” for “100 μportion”, “hydroxide, pH 10.0)” for “hydroxide, pH10.0)”, “fluorescence. On day 7, the samples were irradiated with excitation light of 350 nm and, using a fluorescence spectrophotometer, the intensity of fluorescence was measured at 450 nm. A control shown in Table 1 is the above-described culture medium with only dioxin analogue (esculetin-type) added.” for “fluorescence.”
# [8] = system: Phanerochaete chrysosporium ME446; assay: as above; conditions: P. chrysosporium ME446 culture; substrate 1 ppm; day 7; excitation 350 nm, emission 450 nm; control medium without fungus 1370
# Method: as §1, with “1 (esculetin-type” for “2 (naphthalene-type”
# as §2, with “salts, pH 5.0)” for “salts, pH5.0)”, “substrate (esculetin-type” for “substrate naphthalene-type”, “Example 1)” for “Example 2”, “100 μl portion” for “100 μportion”, “hydroxide, pH 10.0)” for “hydroxide, pH10.0)”, “fluorescence. On day 7, the samples were irradiated with excitation light of 350 nm and, using a fluorescence spectrophotometer, the intensity of fluorescence was measured at 450 nm. A control shown in Table 1 is the above-described culture medium with only dioxin analogue (esculetin-type) added.” for “fluorescence.”
# [9] = system: Pleurotus pulumonairus; assay: as above; conditions: P. pulumonairus culture; substrate 1 ppm; day 7; excitation 350 nm, emission 450 nm; control medium without fungus 1370
# Method: as §1, with “1 (esculetin-type” for “2 (naphthalene-type”
# as §2, with “salts, pH 5.0)” for “salts, pH5.0)”, “substrate (esculetin-type” for “substrate naphthalene-type”, “Example 1)” for “Example 2”, “100 μl portion” for “100 μportion”, “hydroxide, pH 10.0)” for “hydroxide, pH10.0)”, “fluorescence. On day 7, the samples were irradiated with excitation light of 350 nm and, using a fluorescence spectrophotometer, the intensity of fluorescence was measured at 450 nm. A control shown in Table 1 is the above-described culture medium with only dioxin analogue (esculetin-type) added.” for “fluorescence.”
smiles,measurement,setting,value
Clc1cc2c(cc1Cl)Oc1cc3ccccc3cc1O2 [Example 2],"Fluorescence emission, visually screened",[1],most intense fluorescence emission
"Clc1cc2c(cc1Cl)Oc1cc(Cl)c(Cl)cc1O2 [2,3,7,8-tetrachlorodioxin]",Degradation rate,[2],9%
same,Degradation rate,[2]; listed as dioxin,9%
same,Degradation rate,[3],31%
Cc1cc(=O)oc2cc3c(cc12)Oc1cc(Cl)c(Cl)cc1O3 [Example 1],Fluorecsence intensity,[4],1601
same,Fluorecsence intensity,[5],1419
same,Fluorecsence intensity,[6],1639
same,Fluorecsence intensity,[7],1314
same,Fluorecsence intensity,[8],1619
same,Fluorecsence intensity,[9],2203
